Test results reported in BigSolDB 2.1.

Cc1c(C(=O)O)cc([N+](=O)[O-])cc1[N+](=O)[O-]
solubility (mole fraction)
Conditions	288.15 K	293.15 K	298.15 K	303.15 K	308.15 K	313.15 K	318.15 K	323.15 K	328.15 K	333.15 K
in acetonitrile	0.0071	0.0084	0.00994	0.012	0.0145	0.0176	0.0209	0.0248	0.0292	0.0341
in cyclohexane	1.4e-05	1.96e-05	2.69e-05	3.64e-05	4.87e-05	6.37e-05	8.12e-05	0.000103	0.000131	0.000166
in ethanol	0.0467	0.0526	0.0604	0.0695	0.0783	0.0882	0.099	0.11	0.123	0.134
in ethyl acetate	0.0237	0.0271	0.0312	0.0359	0.041	0.0467	0.0536	0.0611	0.0694	0.0781
in isopropanol	0.0102	0.0121	0.0147	0.017	0.0202	0.0232	0.0276	0.0327	0.0384	0.0442
in n-butanol	0.0109	0.0129	0.0152	0.0179	0.0209	0.0243	0.0284	0.034	0.0393	0.0457
in n-heptanol	0.0128	0.0146	0.017	0.0208	0.025	0.0295	0.0341	0.0396	0.0458	0.0524
in n-hexanol	0.00982	0.0114	0.0131	0.0151	0.0177	0.0208	0.0244	0.0288	0.0338	0.0394
in n-pentanol	0.012	0.0138	0.0165	0.0193	0.0226	0.026	0.0303	0.0356	0.0414	0.0478
in n-propanol	0.0126	0.0146	0.0169	0.0202	0.0239	0.0278	0.0326	0.0381	0.0442	0.0505
in sec-butanol	0.0114	0.0134	0.0158	0.0187	0.0219	0.0257	0.03	0.0349	0.0405	0.0467
in toluene	0.0174	0.0207	0.0242	0.0284	0.0328	0.0377	0.0434	0.0493	0.0558	0.0628
in water	1.67e-05	2.35e-05	3.5e-05	4.55e-05	5.87e-05	7.99e-05	0.000108	0.000137	0.000171	0.000218
